Ki data for 34 compounds are collected here from patent US8940724B2, “Quinoline derivitives and their uses” (Amgen Inc., priority 2009, dated 2015).

pKi: −log10 of the molar value.

The target of this experiment is T1, PI3Kδ (Homo sapiens, UniProt O00329).
T1 construct: Full length p110 subunits of PI3k α, β and δ, N-terminally labeled with polyHis tag; polyHis (N); made in house; host or cells: Sf9 insect cells (baculovirus)
In words: PI3Kδ Alphascreen assay. Format: biochemical.

T1 sequence (O00329 whole entry): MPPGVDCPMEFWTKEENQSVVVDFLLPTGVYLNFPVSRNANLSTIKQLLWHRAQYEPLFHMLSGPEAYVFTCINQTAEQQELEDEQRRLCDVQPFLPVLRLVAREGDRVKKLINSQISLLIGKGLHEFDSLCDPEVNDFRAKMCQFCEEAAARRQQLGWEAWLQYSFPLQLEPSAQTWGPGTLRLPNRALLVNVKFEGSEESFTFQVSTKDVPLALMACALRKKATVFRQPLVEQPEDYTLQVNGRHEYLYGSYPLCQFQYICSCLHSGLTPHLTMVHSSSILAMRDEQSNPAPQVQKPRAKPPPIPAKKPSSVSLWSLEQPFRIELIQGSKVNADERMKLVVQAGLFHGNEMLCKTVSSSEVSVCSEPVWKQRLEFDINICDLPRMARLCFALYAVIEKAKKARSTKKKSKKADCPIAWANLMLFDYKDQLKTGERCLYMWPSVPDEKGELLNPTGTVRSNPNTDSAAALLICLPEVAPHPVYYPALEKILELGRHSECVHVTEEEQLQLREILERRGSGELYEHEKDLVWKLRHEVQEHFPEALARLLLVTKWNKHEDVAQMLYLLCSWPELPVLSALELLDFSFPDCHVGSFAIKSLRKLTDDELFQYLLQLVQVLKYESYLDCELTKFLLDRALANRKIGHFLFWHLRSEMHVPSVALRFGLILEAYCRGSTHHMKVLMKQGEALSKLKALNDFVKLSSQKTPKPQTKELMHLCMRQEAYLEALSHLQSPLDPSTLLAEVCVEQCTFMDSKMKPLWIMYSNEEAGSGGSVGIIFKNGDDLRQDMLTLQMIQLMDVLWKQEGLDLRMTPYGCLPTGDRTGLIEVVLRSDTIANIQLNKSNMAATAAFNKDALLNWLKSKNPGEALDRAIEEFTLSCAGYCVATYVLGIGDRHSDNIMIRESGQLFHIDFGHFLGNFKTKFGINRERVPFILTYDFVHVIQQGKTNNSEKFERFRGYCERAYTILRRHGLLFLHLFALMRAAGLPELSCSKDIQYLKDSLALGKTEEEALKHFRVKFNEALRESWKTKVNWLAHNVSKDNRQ
T1 sequence (P27986 whole entry partner): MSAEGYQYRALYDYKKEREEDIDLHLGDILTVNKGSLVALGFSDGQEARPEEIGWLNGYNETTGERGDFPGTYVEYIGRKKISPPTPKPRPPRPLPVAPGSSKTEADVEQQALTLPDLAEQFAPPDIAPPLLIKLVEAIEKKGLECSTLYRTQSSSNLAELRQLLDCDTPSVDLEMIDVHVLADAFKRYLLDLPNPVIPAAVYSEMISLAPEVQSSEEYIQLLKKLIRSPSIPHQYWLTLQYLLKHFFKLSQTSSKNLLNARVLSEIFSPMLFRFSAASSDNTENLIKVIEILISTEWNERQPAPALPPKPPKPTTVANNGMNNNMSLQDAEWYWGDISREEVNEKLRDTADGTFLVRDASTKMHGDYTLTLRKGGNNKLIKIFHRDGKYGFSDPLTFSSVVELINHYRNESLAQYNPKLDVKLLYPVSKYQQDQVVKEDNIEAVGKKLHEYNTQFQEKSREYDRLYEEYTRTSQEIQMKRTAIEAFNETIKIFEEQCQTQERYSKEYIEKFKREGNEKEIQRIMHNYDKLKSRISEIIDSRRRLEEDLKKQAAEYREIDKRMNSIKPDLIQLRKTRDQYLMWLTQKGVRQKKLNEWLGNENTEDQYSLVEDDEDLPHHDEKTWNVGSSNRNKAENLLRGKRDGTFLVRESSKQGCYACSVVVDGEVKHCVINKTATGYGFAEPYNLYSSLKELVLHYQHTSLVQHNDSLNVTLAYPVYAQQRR

In general, pKi refers to the Ki on a negative log10 scale, so that one unit is a factor of ten. Take `Cc1ccnc(-c2nc3cc(F)ccc3c(Nc3cc(N4CCOCC4)cnc3N3CCOCC3)c2C(C)C)c1` [N-(2,5-di-4-morpholinyl-3-pyridinyl)-7-fluoro-3-(1-methylethyl)-2-(4-methyl-2-pyridinyl)-4-quinolinamine]: the negative logarithm of the Ki (pKi) was 7.85.
The value for `Cc1c(-c2cc([N+](=O)[O-])ccc2S(C)(=O)=O)nc2cc(F)ccc2c1Nc1cc(N2CCOCC2)cnc1N1CCOCC1` [N-(2,5-di-4-morpholinyl-3-pyridinyl)-7-fluoro-3-methyl-2-(2-(methylsulfonyl)-5-nitrophenyl)-4-quinolinamine] was 8.08; that for `Cc1ccnc(-c2nc3cc(F)ccc3c(Nc3cc(N4CCOCC4)cnc3N3CCOCC3)c2C)c1` [N-(2,5-di-4-morpholinyl-3-pyridinyl)-7-fluoro-3-methyl-2-(4-methyl-2-pyridinyl)-4-quinolinamine] was 7.45; that for `Cc1c(-c2ccccn2)nc2cnccc2c1Nc1cc(N2CCOCC2)ccc1N1CCOCC1` [N-(2,5-di-4-morpholinylphenyl)-3-methyl-2-(2-pyridinyl)-1,7-naphthyridin-4-amine] was 6.06.
For the compound `Cc1c(-c2ccccn2)nc2ncccc2c1Nc1cc(N2CCOCC2)ccc1N1CCOCC1` [N-(2,5-di-4-morpholinylphenyl)-3-methyl-2-(2-pyridinyl)-1,8-naphthyridin-4-amine], the pKi is 6.24.
Next, `Cc1c(-c2ccccn2)nc2cc(F)cc(F)c2c1Nc1cc(N2CCOCC2)ccc1C1=CCOCC1` [N-(2-(3,6-dihydro-2H-pyran-4-yl)-5-(4-morpholinyl)phenyl)-5,7-difluoro-3-methyl-2-(2-pyridinyl)-4-quinolinamine]: 8.12; `Cc1c(-c2ccccn2)nc2cc(F)cc(F)c2c1Nc1cc(N2CCOCC2)cnc1-c1cccc(OC(F)F)c1` [N-(2-(3-(difluoromethoxy)phenyl)-5-(4-morpholinyl)-3-pyridinyl)-5,7-difluoro-3-methyl-2-(2-pyridinyl)-4-quinolinamine]: 8.65; `Cc1c(-c2ccccn2)nc2cc(F)cc(F)c2c1Nc1cc(N2CCOCC2)cnc1-c1ccc(OC(F)F)cc1` [N-(2-(4-(difluoromethoxy)phenyl)-5-(4-morpholinyl)-3-pyridinyl)-5,7-difluoro-3-methyl-2-(2-pyridinyl)-4-quinolinamine]: 8.90.
In turn, `Cc1c(-c2ccccn2)nc2cc(F)cc(F)c2c1Nc1cc(N2CCOCC2)cnc1Cl` [N-(2-chloro-5-(4-morpholinyl)-3-pyridinyl)-5,7-difluoro-3-methyl-2-(2-pyridinyl)-4-quinolinamine] had a pKi of 8.37.
The value for `COc1ccc(-c2ncc(N3CCOCC3)cc2Nc2c(C)c(-c3ccccc3S(C)(=O)=O)nc3cc(F)cc(F)c23)cn1` [N-(5,7-difluoro-3-methyl-2-(2-(methylsulfonyl)phenyl)-4-quinolinyl)-6′-methoxy-5-(4-morpholinyl)-2,3′-bipyridin-3-amine] was 8.75; that for `COc1cncc(-c2ncc(N3CCOCC3)cc2N(C(=O)C(F)(F)F)c2c(C)c(-c3ccccn3)nc3cc(F)cc(F)c23)c1` [N-(5,7-difluoro-3-methyl-2-(2-pyridinyl)-4-quinolinyl)-2,2,2-trifluoro-N-(5′-methoxy-5-(4-morpholinyl)-2,3′-bipyridin-3-yl)-acetamide] was 6.64; that for `COc1ncccc1-c1ncc(N2CCOCC2)cc1Nc1c(C)c(-c2ccccn2)nc2cc(F)cc(F)c12` [N-(5,7-difluoro-3-methyl-2-(2-pyridinyl)-4-quinolinyl)-2′-methoxy-5-(4-morpholinyl)-2,3′-bipyridin-3-amine] was 6.92.
Next, `COc1cc(-c2ncc(N3CCOCC3)cc2Nc2c(C)c(-c3ccccn3)nc3cc(F)cc(F)c23)ccn1` [N-(5,7-difluoro-3-methyl-2-(2-pyridinyl)-4-quinolinyl)-2′-methoxy-5-(4-morpholinyl)-2,4′-bipyridin-3-amine]: 8.10; `COc1cnccc1-c1ncc(N2CCOCC2)cc1Nc1c(C)c(-c2ccccn2)nc2cc(F)cc(F)c12` [N-(5,7-difluoro-3-methyl-2-(2-pyridinyl)-4-quinolinyl)-3′-methoxy-5-(4-morpholinyl)-2,4′-bipyridin-3-amine]: 8.11.
Next, `COc1cc(-c2ncc(N3CCOCC3)cc2Nc2c(C)c(-c3ccccn3)nc3cc(F)cc(F)c23)c(F)cn1` [N-(5,7-difluoro-3-methyl-2-(2-pyridinyl)-4-quinolinyl)-5′-fluoro-2′-methoxy-5-(4-morpholinyl)-2,4′-bipyridin-3-amine]: 7.63; `COc1cncc(-c2ncc(N3CCOCC3)cc2Nc2c(C)c(-c3ccccn3)nc3cc(F)cc(F)c23)c1` [N-(5,7-difluoro-3-methyl-2-(2-pyridinyl)-4-quinolinyl)-5′-methoxy-5-(4-morpholinyl)-2,3′-bipyridin-3-amine]: 9.29.
For the compound `CCOc1ccc(-c2ncc(N3CCOCC3)cc2Nc2c(C)c(-c3ccccn3)nc3cc(F)cc(F)c23)cn1` [N-(5,7-difluoro-3-methyl-2-(2-pyridinyl)-4-quinolinyl)-6′-ethoxy-5-(4-morpholinyl)-2,3′-bipyridin-3-amine], the negative-log Ki (pKi) was 8.58. This pKi lies 0.71 log units lower than the previous one.
Next, `COc1ccc(-c2ncc(N3CCOCC3)cc2Nc2c(C)c(-c3ccccn3)nc3cc(F)cc(F)c23)cn1` [N-(5,7-difluoro-3-methyl-2-(2-pyridinyl)-4-quinolinyl)-6′-methoxy-5-(4-morpholinyl)-2,3′-bipyridin-3-amine]: 8.81; `Cc1c(-c2cccnc2)nc2cc(F)cc(F)c2c1N(C(=O)C(F)(F)F)c1cncc(N2CCOCC2)c1` [N-(5,7-difluoro-3-methyl-2-(3-pyridinyl)-4-quinolinyl)-2,2,2-trifluoro-N-(5-(4-morpholinyl)-3-pyridinyl)acetamide]: 7.33; `COc1ccc(-c2ncc(N3CCOCC3)cc2Nc2c(C)c(-c3cc(C)ccn3)nc3cc(F)cc(F)c23)cn1` [N-(5,7-difluoro-3-methyl-2-(4-methyl-2-pyridinyl)-4-quinolinyl)-6′-methoxy-5-(4-morpholinyl)-2,3′-bipyridin-3-amine]: 8.50.
The value for `Cc1c(NCC(=O)O)nc2cc(F)cc(F)c2c1Nc1cncc(N2CCOCC2)c1` [N-(5,7-difluoro-3-methyl-4-((5-(4-morpholinyl)-3-pyridinyl)-amino)-2-quinolinyl)glycine] was 6.88; that for `Cc1ccnc(-c2nc3cc(F)cc(F)c3c(Nc3cncc(-c4ccnc(N)n4)c3)c2C)c1` [N-(5-(2-amino-4-pyrimidinyl)-3-pyridinyl)-5,7-difluoro-3-methyl-2-(4-methyl-2-pyridinyl)-4-quinolinamine] was 8.27.
Next, `Cc1c(-c2ccccc2S(C)(=O)=O)nc2cc(F)cc(F)c2c1Nc1cncc(C2=CCOCC2)c1` [N-(5-(3,6-dihydro-2H-pyran-4-yl)-3-pyridinyl)-5,7-difluoro-3-methyl-2-(2-(methylsulfonyl)phenyl)-4-quinolinamine]: 8.75.
For the compound `Cc1ccnc(-c2nc3cc(F)cc(F)c3c(Nc3cncc(C4=CCOCC4)c3)c2C)c1` [N-(5-(3,6-dihydro-2H-pyran-4-yl)-3-pyridinyl)-5,7-difluoro-3-methyl-2-(4-methyl-2-pyridinyl)-4-quinolinamine], the pKi was 7.84.
Next, `Cc1c(N2CCOCC2)nc2cc(F)cc(F)c2c1Nc1cncc(C2=CCOCC2)c1` [N-(5-(3,6-dihydro-2H-pyran-4-yl)-3-pyridinyl)-5,7-difluoro-3-methyl-2-(4-morpholinyl)-4-quinolinamine]: 7.17.
Next, `COc1cncc(-c2ncc(N3CCOCC3)cc2Nc2c(C)c(-c3cc(C)ccn3)nc3c(Cl)cccc23)c1` [N-(8-chloro-3-methyl-2-(4-methyl-2-pyridinyl)-4-quinolinyl)-5′-methoxy-5-(4-morpholinyl)-2,3′-bipyridin-3-amine]: 8.05; `CCOC(=O)N1CCN(c2nc3cc(F)cc(F)c3c(Nc3cncc(N4CCOCC4)c3)c2C)CC1` [ethyl 4-(5,7-difluoro-3-methyl-4-((5-(4-morpholinyl)-3-pyridinyl)amino)-2-quinolinyl)-1-piperazinecarboxylate]: 7.34; `COC(=O)N1CCN(c2nc3cc(F)cc(F)c3c(Nc3cc(N4CCOCC4)cnc3N3CCOCC3)c2C)CC1` [methyl 4-(4-((2,5-di-4-morpholinyl-3-pyridinyl)amino)-5,7-difluoro-3-methyl-2-quinolinyl)-1-piperazinecarboxylate]: 8.15.
The value for `COC(=O)N1CCN(c2nc3cc(F)cc(F)c3c(Nc3cncc(N4CCOCC4)c3)c2C)CC1` [methyl 4-(5,7-difluoro-3-methyl-4-((5-(4-morpholinyl)-3-pyridinyl)amino)-2-quinolinyl)-1-piperazinecarboxylate] was 8.03; that for `COC(=O)N1CCN(c2nc3cc(F)cc(F)c3c(Nc3cncc(N4CCOCC4)c3)c2C)C[C@H]1C` [methyl (2R)-4-(5,7-difluoro-3-methyl-4-((5-(4-morpholinyl)-3-pyridinyl)amino)-2-quinolinyl)-2-methyl-1-piperazinecarboxylate] was 6.73; that for `COC(=O)N1CCN(c2nc3cc(F)cc(F)c3c(Nc3cncc(N4CCOCC4)c3)c2C)C[C@@H]1C` [methyl (2S)-4-(5,7-difluoro-3-methyl-4-((5-(4-morpholinyl)-3-pyridinyl)amino)-2-quinolinyl)-2-methyl-1-piperazinecarboxylate] was 7.82.
On to `COC(=O)N1CCN(c2nc3cc(F)cc(F)c3c(Nc3cncc(N4CCOCC4)c3)c2C)[C@H](C)C1` [methyl (3R)-4-(5,7-difluoro-3-methyl-4-((5-(4-morpholinyl)-3-pyridinyl)amino)-2-quinolinyl)-3-methyl-1-piperazinecarboxylate], for which the pKi is 7.50.
Next, `Cc1c(N2CCC[C@@H]2C(=O)OC(C)(C)C)nc2cc(F)cc(F)c2c1Nc1cncc(N2CCOCC2)c1` [tert-butyl 1-(5,7-difluoro-3-methyl-4-((5-(4-morpholinyl)-3-pyridinyl)amino)-2-quinolinyl)-D-prolinate]: 7.74.
Next, `Cc1c(N2CCC[C@H]2C(=O)OC(C)(C)C)nc2cc(F)cc(F)c2c1Nc1cncc(N2CCOCC2)c1` [tert-butyl 1-(5,7-difluoro-3-methyl-4-((5-(4-morpholinyl)-3-pyridinyl)amino)-2-quinolinyl)-L-prolinate]: 8.65.
